Measured values as given in ChEMBL document CHEMBL1201862, “PubChem BioAssay data set” (2004).
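Cultured in 96-well plates, cells were exposed to test compound for 48 hours across five concentrations. Here, GI50 denotes the concentration required for 50% inhibition of growth.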 Active and inactive are the calls of the source. No stated cut-off is given here; in the data, active = GI50 up to about 1.1 µM and inactive = higher.

Assays:
Experiment in all cases: NCI tumour cell line growth inhibition, 48 h
KM-20L2 = system: KM-20L2
M19-MEL = system: M19-MEL
RXF 631 = system: RXF 631
DMS-114 = system: DMS-114
LXFL 529 = system: LXFL 529
DLD-1 = system: DLD-1
HOP-18 = system: HOP-18
XF498 = system: XF498
DMS-273 = system: DMS-273

Row | SMILES | GI50 (KM-20L2) | GI50 (M19-MEL) | GI50 (RXF 631) | GI50 (DMS-114) | GI50 (LXFL 529) | GI50 (DLD-1) | GI50 (HOP-18) | GI50 (XF498) | GI50 (DMS-273)
1 | CCOC(=O)/N=C(\N)SCc1ccccc1 | > 100 µM (inactive) | > 100 µM (inactive) | > 100 µM (inactive) | > 100 µM (inactive) | > 100 µM (inactive) | > 100 µM (inactive) | > 100 µM (inactive) | > 100 µM (inactive) | > 100 µM (inactive)
2 | NC(=O)N1N=C2c3ccccc3CC[C@@H]2C1c1ccccc1 (stereo partly specified) | > 100 µM (inactive) | > 100 µM (inactive) |  | 77.1 µM (inactive) | > 100 µM (inactive) | > 100 µM (inactive) |  |  | > 100 µM (inactive)
3 | CN(C)C(=O)OC(Cn1cncn1)c1ccc(Cl)cc1Cl (stereo unspecified) | > 100 µM (inactive) | > 100 µM (inactive) |  | > 100 µM (inactive) | > 100 µM (inactive) | > 100 µM (inactive) | > 100 µM (inactive) |  | > 100 µM (inactive)
4 | Cc1nn(-c2nc3ccccc3s2)c2c1C(=O)c1ccccc1-2 | > 100 µM (inactive) | > 100 µM (inactive) |  | > 100 µM (inactive) | 74.8 µM (inactive) | > 100 µM (inactive) | > 100 µM (inactive) |  | > 100 µM (inactive)
5 | CC(=O)OC1COC(N2C(=O)C(=O)c3c(C)cc(Cl)nc32)C(OC(C)=O)C1OC(C)=O (stereo unspecified) | > 100 µM (inactive) | > 100 µM (inactive) |  | > 100 µM (inactive) | > 100 µM (inactive) | > 100 µM (inactive) | > 100 µM (inactive) | > 100 µM (inactive) | > 100 µM (inactive)
6 | COC1(C)CC2N(C(=O)c3ccccc3)N=C(c3ccccc3)CC2(C)O1 (stereo unspecified) | > 100 µM (inactive) |  | > 100 µM (inactive) | > 100 µM (inactive) | > 100 µM (inactive) | 44.5 µM (inactive) |  | > 100 µM (inactive) | 
7 | O=S(=O)(c1ccccc1)C1CN2OC1(S(=O)(=O)c1ccccc1)CC2c1ccc(Br)cc1 (stereo unspecified) | > 100 µM (inactive) | > 100 µM (inactive) | 26.5 µM (inactive) | > 100 µM (inactive) |  | > 100 µM (inactive) |  | 18.6 µM (inactive) | > 100 µM (inactive)
8 | CCCCNC(=NC#N)NCCCC | > 100 µM (inactive) | 83.4 µM (inactive) | > 100 µM (inactive) | 55.6 µM (inactive) | > 100 µM (inactive) | > 100 µM (inactive) | > 100 µM (inactive) | > 100 µM (inactive) | > 100 µM (inactive)
9 | N#CCCN(c1ccc(/C=N/c2ccccc2)cc1)S(=O)(=O)c1ccccc1 |  | > 100 µM (inactive) |  | > 100 µM (inactive) | 4.44 µM (inactive) | > 100 µM (inactive) |  | 0.834 µM (active) | > 100 µM (inactive)
10 | CCCCCCCCCCCOC(=S)NC(C)C | 16 µM (inactive) | 24.9 µM (inactive) |  | 17.8 µM (inactive) | 25.8 µM (inactive) | 21.4 µM (inactive) | 27.5 µM (inactive) | 16.7 µM (inactive) | 18.3 µM (inactive)
11 | COc1ccc(/C=C2\CN(C)Cc3c2nc(N)nc3-c2ccc(OC)cc2)cc1 | 82 µM (inactive) | 95.3 µM (inactive) |  | 65.3 µM (inactive) | 49.5 µM (inactive) | 57 µM (inactive) |  | 35 µM (inactive) | > 100 µM (inactive)
12 | C/C(=N\NS(=O)(=O)c1ccc([N+](=O)[O-])cc1)c1ccc[n+]([O-])n1 | 4.48 µM (inactive) | 2.04 µM (inactive) |  | 1.77 µM (inactive) | 2.21 µM (inactive) | 2.58 µM (inactive) | 11.6 µM (inactive) | 2.64 µM (inactive) | 0.764 µM (active)
13 | O=C1/C(=C/c2ccccc2)CN(C(=O)OCc2ccccc2)C/C1=C\c1ccccc1 | 11.1 µM (inactive) | 5.87 µM (inactive) | 16.9 µM (inactive) | 11.2 µM (inactive) |  | 3.63 µM (inactive) | > 10 µM (inactive) | 16.6 µM (inactive) | 5 µM (inactive)
14 | CCCC1(CC(=O)O)OCCc2c1[nH]c1ccccc21 (stereo unspecified) [PRODOLIC ACID] | > 100 µM (inactive) | > 100 µM (inactive) |  | > 100 µM (inactive) | > 100 µM (inactive) | > 100 µM (inactive) | > 100 µM (inactive) | > 100 µM (inactive) | > 100 µM (inactive)
15 | CCCCCCCCCCCCCC(=S)N/C=C/OC | 40.1 µM (inactive) | 31.1 µM (inactive) |  | 21.7 µM (inactive) | 38.3 µM (inactive) | 33.4 µM (inactive) | 35.8 µM (inactive) | 24.3 µM (inactive) | 
16 | COc1ccc(C2Oc3ccc(O)cc3[C@@H]2C)cc1OC (stereo partly specified) | > 100 µM (inactive) | > 100 µM (inactive) |  | 59.8 µM (inactive) | 71 µM (inactive) | > 100 µM (inactive) | > 100 µM (inactive) | > 100 µM (inactive) | > 100 µM (inactive)
17 | CN(C)CCCNc1c2ccccc2nc2cccc([N+](=O)[O-])c12 | 0.01 µM (active) | 0.01 µM (active) |  | 0.0132 µM (active) |  |  |  | 0.01 µM (active) | 0.01 µM (active)
18 | COC1OC(C)C(OC(=O)C(C)(C)C)C(OS(=O)(=O)c2ccc(C)cc2)C1OS(=O)(=O)c1ccc(C)cc1 (stereo unspecified) | > 100 µM (inactive) | > 100 µM (inactive) |  | > 100 µM (inactive) | > 100 µM (inactive) | > 100 µM (inactive) | > 100 µM (inactive) |  | > 100 µM (inactive)
19 | CC(=O)N/N=C1\CC(C)(C)C2CCC1C2 (stereo unspecified) |  | > 100 µM (inactive) |  | > 100 µM (inactive) | > 100 µM (inactive) |  |  | > 100 µM (inactive) | > 100 µM (inactive)
20 | COc1ccc(Br)c2c1CC(C(=O)O)CC2 (stereo unspecified) | > 100 µM (inactive) |  |  | > 100 µM (inactive) | > 100 µM (inactive) | > 100 µM (inactive) | > 100 µM (inactive) | > 100 µM (inactive) | > 100 µM (inactive)
21 | O=C(/C=N/c1ccccc1[S-])c1ccco1.O=C(/C=N/c1ccccc1[S-])c1ccco1.[Zn+2] | 15.3 µM (inactive) |  | 17 µM (inactive) | 21.2 µM (inactive) | 10 µM (inactive) | 4.44 µM (inactive) |  |  | 
22 | CC(C)/C=C1\CCC(CN2CCOCC2)C1=O (stereo unspecified) | 20.1 µM (inactive) | 23.4 µM (inactive) |  |  | 2.74 µM (inactive) | 2.69 µM (inactive) | 17.7 µM (inactive) | 18.3 µM (inactive) | 
23 | COc1cccc(C2=NC(C(C)C)CO2)c1 (stereo unspecified) | > 100 µM (inactive) | > 100 µM (inactive) |  | > 100 µM (inactive) | > 100 µM (inactive) | > 100 µM (inactive) |  | > 100 µM (inactive) | > 100 µM (inactive)
24 | C[Si](C)(C)c1ccc(CC2(Cc3ccc([Si](C)(C)C)cc3)CCNC2)cc1 | 1.9 µM (inactive) | 1.95 µM (inactive) | 2.32 µM (inactive) | 2.13 µM (inactive) | 2.18 µM (inactive) | 2.51 µM (inactive) | 2.77 µM (inactive) |  | 1.94 µM (inactive)
25 | O=C1C(Cl)C(c2ccc(O)cc2)N1n1cnc2ccccc2c1=O (stereo unspecified) | 58.9 µM (inactive) | 22.2 µM (inactive) |  | 28.2 µM (inactive) | 16.7 µM (inactive) | 19.1 µM (inactive) | 49.4 µM (inactive) | 33.5 µM (inactive) | 39.8 µM (inactive)
26 | O=C1c2ccccc2C(=O)c2c1oc1cc(O)c(Cl)cc21 | 2.67 µM (inactive) | 0.177 µM (active) |  | 2.23 µM (inactive) | 20.5 µM (inactive) | 6.22 µM (inactive) | 1.73 µM (inactive) | 7.41 µM (inactive) | 2.41 µM (inactive)
27 | O=[N+]([O-])c1ccc(C2CC(c3ccc(NCc4nc5ccccc5[nH]4)cc3)=NO2)cc1 (stereo unspecified) |  | 33.7 µM (inactive) |  | 11.4 µM (inactive) | 16.4 µM (inactive) | 45 µM (inactive) | > 100 µM (inactive) |  | 32.1 µM (inactive)
